Assay results: ChEMBL document CHEMBL3526036, “Hepatic pharmacokinetics of cationic drugs in a high-fat emulsion-induced rat model of nonalcoholic steatohepatitis” (Drug Metab Dispos, 2011)

Columns and labels:
Liver [1] = assay: Mean transit time of the compound in perfused liver of high-fat emulsion-induced nonalcoholic steatohepatitis Wistar rat at 4 mM after 10 mins; format: ADME, tissue-based; conditions: 4000 µM
[2] = Extraction ratio of the compound in perfused liver of high-fat emulsion-induced nonalcoholic steatohepatitis Wistar rat at 4 mM after 10 mins; format: ADME, tissue-based; conditions: read-out: ERH
[3] = Dissociation constant, pKa of the compound; format: physicochemical
[4] = Octanol-water apparent partition coefficient, logD of the compound at pH 7.4; format: physicochemical
Liver [5] = assay: Apparent distribution ratio of the compound in perfused liver of high-fat emulsion-induced nonalcoholic steatohepatitis Wistar rat at 4 mM after 10 mins; format: ADME, tissue-based; conditions: 4000 µM
[6] = Extraction ratio of the compound in healthy Wistar rat perfused liver at 4 mM after 10 mins; format: ADME, tissue-based; conditions: read-out: ERH
Liver [7] = assay: Apparent distribution ratio of the compound in healthy Wistar rat perfused liver at 4 mM after 10 mins; format: ADME, tissue-based; conditions: 4000 µM
Liver [8] = assay: Mean transit time of the compound in healthy Wistar rat perfused liver at 4 mM after 10 mins; format: ADME, tissue-based; conditions: 4000 µM
Liver [9] = assay: Drug distribution in healthy Wistar rat perfused liver assessed as equilibrium amount ratio charactering slow binding process at 6 mM after 10 mins; format: ADME, tissue-based; conditions: in vivo, 6000 µM
Liver [10] = assay: Mean transit time of the compound in healthy Wistar rat perfused liver at 6 mM after 10 mins; format: ADME, tissue-based; conditions: 6000 µM
Liver [11] = assay: Mean transit time of the compound in perfused liver of high-fat emulsion-induced nonalcoholic steatohepatitis Wistar rat at 6 mM after 10 mins; format: ADME, tissue-based; conditions: 6000 µM
Liver [12] = assay: Drug distribution in perfused liver of high-fat emulsion-induced nonalcoholic steatohepatitis Wistar rat assessed as equilibrium amount ratio charactering fast binding process at 6 mM after 10 mins; format: ADME, tissue-based; conditions: in vivo, 6000 µM
in vitro [13] = conditions: Wistar, rat, perfused liver
Description: Extraction ratio of the compound in healthy Wistar rat perfused liver at 6 mM after 10 mins

Liver [14] = assay: Drug distribution in healthy Wistar rat perfused liver assessed as equilibrium amount ratio charactering fast binding process at 6 mM after 10 mins; format: ADME, tissue-based; conditions: in vivo, 6000 µM
Liver [15] = assay: Drug distribution in perfused liver of high-fat emulsion-induced nonalcoholic steatohepatitis Wistar rat assessed as equilibrium amount ratio charactering slow binding process at 6 mM after 10 mins; format: ADME, tissue-based; conditions: in vivo, 6000 µM
Liver [16] = assay: Apparent distribution ratio of the compound in healthy Wistar rat perfused liver at 6 mM after 10 mins; format: ADME, tissue-based; conditions: 6000 µM
in vitro [17] = conditions: Wistar, rat, perfused liver; remark: listed apart in the source
Description: Extraction ratio of the compound in perfused liver of high-fat emulsion-induced nonalcoholic steatohepatitis Wistar rat at 6 mM after 10 mins

Liver [18] = assay: Apparent distribution ratio of the compound in perfused liver of high-fat emulsion-induced nonalcoholic steatohepatitis Wistar rat at 6 mM after 10 mins; format: ADME, tissue-based; conditions: 6000 µM
Liver [19] = assay: Drug distribution in healthy Wistar rat perfused liver assessed as equilibrium amount ratio charactering slow binding process at 3 mM after 10 mins; format: ADME, tissue-based; conditions: in vivo, 3000 µM
Liver [20] = assay: Apparent distribution ratio of the compound in perfused liver of high-fat emulsion-induced nonalcoholic steatohepatitis Wistar rat at 3 mM after 10 mins; format: ADME, tissue-based; conditions: 3000 µM
Liver [21] = assay: Mean transit time of the compound in perfused liver of high-fat emulsion-induced nonalcoholic steatohepatitis Wistar rat at 3 mM after 10 mins; format: ADME, tissue-based; conditions: 3000 µM
Liver [22] = assay: Mean transit time of the compound in healthy Wistar rat perfused liver at 3 mM after 10 mins; format: ADME, tissue-based; conditions: 3000 µM
Liver [23] = assay: Drug distribution in perfused liver of high-fat emulsion-induced nonalcoholic steatohepatitis Wistar rat assessed as equilibrium amount ratio charactering fast binding process at 8 mM after 10 mins; format: ADME, tissue-based; conditions: in vivo, 8000 µM
Liver [24] = assay: Apparent distribution ratio of the compound in perfused liver of high-fat emulsion-induced nonalcoholic steatohepatitis Wistar rat at 8 mM after 10 mins; format: ADME, tissue-based; conditions: 8000 µM
Liver [25] = assay: Mean transit time of the compound in healthy Wistar rat perfused liver at 8 mM after 10 mins; format: ADME, tissue-based; conditions: 8000 µM
Liver [26] = assay: Drug distribution in perfused liver of high-fat emulsion-induced nonalcoholic steatohepatitis Wistar rat assessed as equilibrium amount ratio charactering slow binding process at 8 mM after 10 mins; format: ADME, tissue-based; conditions: in vivo, 8000 µM
Liver [27] = assay: Drug distribution in healthy Wistar rat perfused liver assessed as equilibrium amount ratio charactering slow binding process at 8 mM after 10 mins; format: ADME, tissue-based; conditions: in vivo, 8000 µM
Liver [28] = assay: Drug distribution in healthy Wistar rat perfused liver assessed as equilibrium amount ratio charactering fast binding process at 8 mM after 10 mins; format: ADME, tissue-based; conditions: in vivo, 8000 µM
Liver [29] = assay: Mean transit time of the compound in perfused liver of high-fat emulsion-induced nonalcoholic steatohepatitis Wistar rat at 8 mM after 10 mins; format: ADME, tissue-based; conditions: 8000 µM
Liver [30] = assay: Apparent distribution ratio of the compound in healthy Wistar rat perfused liver at 8 mM after 10 mins; format: ADME, tissue-based; conditions: 8000 µM

Cc1cc(=O)n(-c2ccccc2)n1C [ANTIPYRINE]
MTT (Liver [1]): 64.12 s
hepatic extraction ratio at 10 min, 4000 µM [2]: 0.08
pKa [3]: 1.45
logD ([4]; read-out: LogD7.4): 0.33
K (Liver [5]): 4.5
hepatic extraction ratio at 10 min, 4000 µM [6]: 0.16
K (Liver [7]): 2.67
MTT (Liver [8]): 46.46 s

CC(C)NCC(O)COc1ccc(CC(N)=O)cc1 (stereo unspecified) [ATENOLOL]
MTT (Liver [1]): 18.63 s
K (Liver [5]): 12.51
K (Liver [7]): 9.9
MTT (Liver [8]): 13.12 s

CC(CCc1ccccc1)NCC(O)c1ccc(O)c(C(N)=O)c1 (stereo unspecified) [LABETALOL]
K (Liver [9]): 6.78
MTT (Liver [10]): 29.1 s
MTT (Liver [11]): 33.98 s
K (Liver [12]): 1.94
hepatic extraction ratio at 10 min, 6000 µM (in vitro [13]): 0.86
K (Liver [14]): 1.08
LogD7.4 [4]: 2.69
K (Liver [15]): 11.81
K (Liver [16]): 6.45
hepatic extraction ratio at 10 min, 6000 µM (in vitro [17]): 0.79
K (Liver [18]): 10.94

COCCc1ccc(OCC(O)CNC(C)C)cc1 (stereo unspecified) [METOPROLOL]
K (Liver [19]): 2.27
K (Liver [20]): 11.97
MTT (Liver [21]): 67.43 s
LogD7.4 [4]: 1.79
MTT (Liver [22]): 60.26 s

CC(C)NCC(O)COc1cccc2ccccc12 (stereo unspecified) [PROPRANOLOL]
K (Liver [23]): 0.38
K (Liver [24]): 16.31
MTT (Liver [25]): 58.14 s
K (Liver [26]): 5.35
K (Liver [27]): 13.59
K (Liver [28]): 1.96
MTT (Liver [29]): 70.99 s
K (Liver [30]): 10.76
